Entries after “also recorded” stand apart in the source; their conditions may differ.
How the values were obtained:
[1] = biological target: T1, WS2 (Marinobacter nauticus, UniProt A3RE51); assay: WS2 kinetics on ethanol and oleoyl-CoA (DTNB); type: biochemical, Marinobacter hydrocarbonoclasticus
Procedure: (§1) […] Assay reactions were pre-incubated at 37° C. for 5 minutes before the reactions were started by the addition of enzyme.

[2] = biological target: T2, Acinetobacter WS/DGAT (Acinetobacter baylyi, UniProt Q8GGG1); assay: Kinetic WS assay, spectrophotometric (CoA release, DTNB); type: biochemical
T2 construct: His6 (N); made in house
T2 sequence (Q8GGG1 1-458): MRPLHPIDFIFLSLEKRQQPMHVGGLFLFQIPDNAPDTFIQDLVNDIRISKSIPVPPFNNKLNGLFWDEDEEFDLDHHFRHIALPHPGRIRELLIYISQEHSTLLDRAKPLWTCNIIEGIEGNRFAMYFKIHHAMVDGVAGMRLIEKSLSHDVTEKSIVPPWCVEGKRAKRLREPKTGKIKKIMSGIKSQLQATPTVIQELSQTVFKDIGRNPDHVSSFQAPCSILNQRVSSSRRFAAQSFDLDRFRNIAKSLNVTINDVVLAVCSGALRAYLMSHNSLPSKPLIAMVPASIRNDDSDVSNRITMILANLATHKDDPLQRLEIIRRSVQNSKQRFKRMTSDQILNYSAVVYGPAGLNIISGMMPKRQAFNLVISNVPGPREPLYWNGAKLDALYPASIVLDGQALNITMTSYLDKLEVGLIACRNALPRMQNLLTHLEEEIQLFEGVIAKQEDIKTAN
Procedure: (§2) WS activity was determined by monitoring CoA release using Ellman's reagent [5,5′-dithio-bis(2-nitrobenzoic acid); DTNB] at 412 nm (ε=13,600 M^−1 cm^−1) (Ellman, 1959. Arch. Biochem. Biophys. 82:70-77). Kinetic in vitro assays were performed in triplicate in 125 mM sodium phosphate buffer (pH 7.4) containing 0.1% Tergitol NP-11 detergent, 10 mM MgCl2, 1 mM DNTB, 250 μM palmitoyl-CoA, 1 to 250 μM hexadecanol, and 0.5 μg of WS enzyme. Assay reactions were preincubated at 37° C. for 5 min before the reactions were started by the addition of enzyme. Heat-denatured enzyme (99° C. for 15 min) was used as a negative control.
(§3) Acyl-CoA and fatty/isoprenoid alcohol specificity of WS2 was determined in the same manner as described for the kinetic WS assay with assumed saturating conditions containing both the fatty/isoprenoid alcohol and acyl-CoA substrates at a concentration of 1 mM. Acyl-CoA specificity was measured with hexadecanol as acyl acceptor, whereas palmitoyl-CoA was used as acyl donor to determine alcohol specificity. Isoprenoid WS activity of WS2 was determined with 250 μM HPLC purified phytanoyl-CoA and 250 μM phytol as substrates.
(§4) A spectrophotometric assay was developed to determine the kinetic properties of WS1 and WS2. The concentration of sulfhydryl groups of CoA released during the condensation reaction between fatty/isoprenoid CoA activated acids and alcohols was determined by using Ellman's reagent (DTNB) (Ellman, 1959. Arch. Biochem. Biophys. 82:70-77). The specific activities of WS1, WS2, and Acinetobacter WS/DGAT were measured with palmitoyl-CoA and hexadecanol, palmitoyl-CoA and phytol, and phytanoyl-CoA and phytol. Phytanoyl-CoA for these assays was enzymatically synthesized from phytanic acid and CoA using the above-characterized isoprenoid/acyl-CoA synthetase Acs2.

[3] = tested on: WS1; assay: as above; type: biochemical, Marinobacter hydrocarbonoclasticus DSM 8798
Procedure: as §2, §3, §4

[4] = biological target: T1, WS2; assay: as above; type: biochemical, Marinobacter hydrocarbonoclasticus DSM 8798
Procedure: Assay reactions were preincubated at 37° C. for 5 min before the reactions were started by the addition of enzyme. Heat-denatured enzyme (99° C. for 15 min) was used as a negative control.
as §3, with “specificity.” for “specificity. Isoprenoid WS activity of WS2 was determined with 250 μM HPLC purified phytanoyl-CoA and 250 μM phytol as substrates.”
A spectrophotometric assay was developed to determine the kinetic properties of WS1 and WS2. […] The specific activities of WS1, WS2, and Acinetobacter WS/DGAT were measured with palmitoyl-CoA and hexadecanol, palmitoyl-CoA and phytol, and phytanoyl-CoA and phytol. Phytanoyl-CoA for these assays was enzymatically synthesized from phytanic acid and CoA using the above-characterized isoprenoid/acyl-CoA synthetase Acs2.

[5] = tested on: WS1; assay: Coupled enzyme assay, WS substrate profile (TLC); type: biochemical, Marinobacter hydrocarbonoclasticus DSM 8798; conditions: coupled reaction; palmitic acid with hexadecanol, phytanic acid with phytol, phytanoyl-CoA with the alcohols named in the value
Procedure: (§5) Stock solutions of various substrates were prepared in 50 mM Tris-HCl buffer (pH 8) containing 1% gum arabic, 12.5 μg bovine serum albumin ml^−1, 0.1% taurocholate, and either 100 mM fatty acid, isoprenoid acid, fatty alcohol, or isoprenoid alcohol. Stock solutions were sonicated to disperse the substrates. Substrate profiles of the three WS were tested using coupled enzyme in vitro reactions in which the CoA synthetases Acs1 and Acs2 are added to synthesize the CoA-activated fatty acid phytanic acid substrates from corresponding acid precursors for the WS reactions. Assays were carried out in 500-μl reactions containing in 50 mM Tris-HCl buffer (pH 8.0), 12.5 μl of each acid, and alcohol substrate stock solution (final concentrations of each substrate of 250 μM), 10 mM MgCl2, 10 mM CoASH, 10 mM ATP, 5 mM TCEP, 0.1 U of inorganic pyrophosphatase, 0.25 μg of Acs1 and Acs2 CoA synthetase, and 0.5 μg of WS to be tested. Assays were incubated at 37° C. overnight before thin-layer chromatography (TLC) analysis of the reaction products.
(§6) In vitro WS assay samples were extracted with 500 μl of chloroformmethanol (1:1 [vol/vol]), and extracts were analyzed by TLC with Whatman normal phase silica gel 60 plates and developed using hexane-diethyl ether-acetic acid (90:10:1 [vol/vol/vol]). TLC plates were stained with either iodine vapor or anisaldehyde solution as described earlier (Jork et al., 1990. Thin-layer chromatography reagents and detection methods, vol. 1a. Physical and chemical detection methods: fundamentals, reagents. VHC, Weinheim, Germany). Palmitoyl palmitate and triolein were used as WE and TAG reference compounds, respectively.

[6] = biological target: T1, WS2; assay: Coupled enzyme assay, WS substrate profile (TLC); type: biochemical, Marinobacter hydrocarbonoclasticus DSM 8798; conditions: coupled reaction; palmitic acid with hexadecanol, phytanic acid with phytol, phytanoyl-CoA with the alcohols named in the value
Procedure: as §5, §6

[7] = substrate: CCCCCCCCCCCCCCCCO; assay: Kinetic WS assay, spectrophotometric (CoA release, DTNB); type: biochemical, Marinobacter hydrocarbonoclasticus DSM 8798; conditions: other: saturating palmitoyl-CoA (250 μM), various concentrations of hexadecanol; pH 7.4
[8] = substrate: CCCCCCCC/C=C\CCCCCCCC(=O)SCCNC(=O)CCNC(=O)[C@H](O)C(C)(C)COP(=O)(O)OP(=O)(O)OC[C@H]1O[C@@H](n2cnc3c(N)ncnc32)[C@H](O)[C@@H]1OP(=O)(O)O; assay: WS2 kinetics on ethanol and oleoyl-CoA (DTNB); type: biochemical, Marinobacter hydrocarbonoclasticus; conditions: other: steady state; varied substrate 10 μM-250 μM, other substrate (oleoyl-CoA or ethanol) 500 μM; pH 7.2; 37.0 °C
Procedure: as §1

[9] = steady state, varied substrate 10 μM-250 μM, other substrate (oleoyl-CoA or ethanol) 500 μM
[10] = co-substrate hexadecanol (C16), listed as palmitoyl-CoA

## CCO [Ethanol]
[1]; steady state on ethanol and oleoyl-CoA
  Kcat of WS2: 32 s⁻¹
[1]; [9]
  Km: 17 µM
  Vmax of WS2: 1250 μmol (mg/min)^−1

## CCCCCCCCCCCCCCCC(=O)SCCNC(=O)CCNC(=O)[C@H](O)C(C)(C)COP(=O)(O)OP(=O)(O)OC[C@H]1O[C@@H](n2cnc3c(N)ncnc32)[C@H](O)[C@@H]1OP(=O)(O)O [Palmitoyl-CoA, palmitoyl-CoA (C16:0)]
[2]; co-substrate hexadecanol (C16)
  Mean sp act ± SD of Acinetobacter WS/DGAT: 0.389 ± 0.039 mmol/min/mg
[2]; [10]
  Mean sp act ± SD of Acinetobacter WS/DGAT: 0.38 mmol/min/mg
[2]; co-substrate phytol
  Mean sp act ± SD of Acinetobacter WS/DGAT: 0.138 ± 0.003 mmol/min/mg
[3]; co-substrate hexadecanol (C16)
  Mean sp act ± SD of Marinobacter WS1: 1.338 ± 0.5 mmol/min/mg
[3]; [10]
  Mean sp act ± SD of Marinobacter WS1: 1.3 mmol/min/mg
[3]; co-substrate phytol
  Mean sp act ± SD of Marinobacter WS1: 0.152 ± 0.011 mmol/min/mg
[4]; co-substrate hexadecanol (C16)
  Mean sp act ± SD of Marinobacter WS2: 61.323 ± 1.79 mmol/min/mg
[4]; [10]
  Mean sp act ± SD of Marinobacter WS2: 61 mmol/min/mg
[4]; co-substrate phytol
  Mean sp act ± SD of Marinobacter WS2: 28.872 ± 2.13 mmol/min/mg
[4]; hexadecanol as acyl acceptor, both substrates 1 mM
  Acyl-CoA specificity of WS2: clear preference
[4]; palmitoyl-CoA and phytol as substrates
  WS2 more active than WS1 or Acinetobacter WS/DGAT in creating the hybrid WE: 20 fold

## CC(C)CCCC(C)CCCC(C)CCCC(C)CC(=O)SCCNC(=O)CCNC(=O)[C@H](O)C(C)(C)COP(=O)(O)OP(=O)(O)OC[C@H]1O[C@@H](n2cnc3c(N)ncnc32)[C@H](O)[C@@H]1OP(=O)(O)O (stereo partly drawn) [Phytanoyl-CoA]
[5]
  WE product formation by WS1 (TLC), in words: fatty alcohols were not condensed to phytanoyl-CoA; also recorded: produced isoprenoid WEs from phytanoyl-CoA and the isoprenoid alcohols phytol and farnesol
[6]
  WE product formation by WS2 (TLC), in words: fatty alcohols were not condensed to phytanoyl-CoA; also recorded: produced isoprenoid WEs from phytanoyl-CoA and the isoprenoid alcohols phytol and farnesol
[4]; co-substrate phytol
  Mean sp act ± SD of Marinobacter WS2: 0.397 ± 0.099 mmol/min/mg
[4]; co-substrate phytol, listed as phytanoyl-CoA
  Mean sp act ± SD of Marinobacter WS2: 0.397 mmol/min/mg

B1: WS2 (Marinobacter nauticus) (protein)
chain: MKRLGTLDASWLAVESEDTPMHVGTLQIFSLPEGAPETFLRDMVTRMKEAGDVAPPWGYKLAWSGFLGRVIAPAWKVDKDIDLDYHVRHSALPRPGGERELGILVSRLHSNPLDFSRPLWECHVIEGLENNRFALYTKMHHSMIDGISGVRLMQRVLTTDPERCNMPPPWTVRPHQRRGAKTDKEASVPAAVSQAMDALKLQADMAPRLWQAGNRLVHSVRHPEDGLTAPFTGPVSVLNHRVTAQRRFATQHYQLDRLKNLAHASGGSLNDIVLYLCGTALRRFLAEQNNLPDTPLTAGIPVNIRPADDEGTGTQISFMIASLATDEADPLNRLQQIKTSTRRAKEHLQKLPKSALTQYTMLLMSPYILQLMSGLGGRMRPVFNVTISNVPGPEGTLYYEGARLEAMYPVSLIAHGGALNITCLSYAGSLNFGFTGCRDTLPSMQKLAVYTGEALDELESLILPPKKRARTRK
[7]
  Km: 44 µM
  Vmax: 10 mmol/mg/min
  kcat: 4,794 s^−1
[4]; in vitro
  WS2 more active in vitro in producing acyl ester products than Acinetobacter WS/DGAT: approximately 150 times
[8]
  Km: 23 µM
  kcat/Km: 2.56 × 10^6 (M^−1 s^−1) M^−1 s^−1
